US20100298141A1, “SUBSTITUTED PYRIDINE N-OXIDE HERBICIDES” (E. I. DU PONT DE NEMOURS AND COMPANY, priority 2007, published 2010)

How the values were obtained:
morningglory = experiment: Test A pre-/postemergence greenhouse test; type: in vivo, Ipomoea spp.; details: for Morningglory plant response rating: 0 to 100 scale
Procedure, shortened: (§1)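 Untreated controls served as the reference for visual injury ratings taken about ten days after spraying. The non-phytotoxic solvent/surfactant formulation was applied preemergence to seeded loam and sand and postemergence to plants two to ten cm high.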

yellow nutsedge = experiment: Test C pre-/postemergence test; type: in vivo, Cyperus esculentus; details: for Plant response rating, Nutsedge, Yellow: scale 0 to 100, 0 no effect, 100 complete control
Procedure, shortened: (§2)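 Seeds were planted and treated preemergence with test chemical in a non-phytotoxic solvent mixture containing surfactant. Postemergence applications of the same formulation went onto plants 2 to 18 cm tall (1- to 4-leaf stage). A dash marks no test result.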

woolly cupgrass = experiment: Test C pre-/postemergence test; type: in vivo, Eriochloa villosa; details: for Plant response rating, Cupgrass, Woolly: scale 0 to 100, 0 no effect, 100 complete control
Procedure, shortened: as §2

[1] = test system: common (oilseed) sunflower; experiment: Test C pre-/postemergence test; type: in vivo, Helianthus annuus; details: for Sunflower plant response rating: preemergence, scale 0 (no effect) to 100 (complete control)
Procedure, shortened: as §2

corn = experiment: Test C pre-/postemergence test; type: in vivo, Zea mays; details: for Plant response rating, Corn: scale 0 to 100, 0 no effect, 100 complete control
Procedure, shortened: as §2

wheat = experiment: Test C pre-/postemergence test; type: in vivo, Triticum aestivum; details: for Wheat plant response rating: preemergence, scale 0 (no effect) to 100 (complete control); for Plant response rating, Wheat: scale 0 to 100, 0 no effect, 100 complete control
Procedure, shortened: as §2

blackgrass = experiment: Test C pre-/postemergence test; type: in vivo, Alopecurus myosuroides; details: for Plant response rating, Blackgrass: scale 0 to 100, 0 no effect, 100 complete control
Procedure, shortened: as §2

Goosegrass = experiment: Test C pre-/postemergence test; type: in vivo, Eleusin indica; details: for Plant response rating, Goosegrass: scale 0 to 100, 0 no effect, 100 complete control
Procedure, shortened: as §2

Italian ryegrass = experiment: Test C pre-/postemergence test; type: in vivo, Lolium multiflorum; details: for Plant response rating, Ryegrass, Italian: scale 0 to 100, 0 no effect, 100 complete control
Procedure, shortened: as §2

crabgrass = experiment: Test A pre-/postemergence greenhouse test; type: in vivo, Digitaria sanguinalis; details: for Crabgrass, Large plant response rating: 0 to 100 scale
Procedure, shortened: as §1

eastern black nightshade = experiment: Test C pre-/postemergence test; type: in vivo, Solanum ptycanthum
From the text: Seeds of plant species selected from blackgrass (Alopecurus myosuroides), downy brome (Bromus tectorum), green foxtail (Setaria viridis), Italian ryegrass (Lolium multiflorum), wheat (Triticum aestivum), wild oat (Avena fatua), catchweed bedstraw (Galium aparine), Russian thistle (Salsola kali), […] (Cynodon dactylon), Surinam grass (Brachiaria decumbens), cocklebur (Xanthium strumarium), corn (Zea mays), crabgrass (Digitaria sanguinalis), woolly cupgrass (Eriochloa villosa), giant foxtail (Setaria faberii), Goosegrass (Eleusin indica), johnsongrass (Sorghum halepense), kochia (Kochia scoparia), lambsquarters (Chenopodium album), morningglory (Ipomoea coccinea), eastern black nightshade (Solanum ptycanthum), yellow nutsedge (Cyperus esculentus), pigweed (Amaranthus retroflexus), common ragweed (Ambrosia elation), soybean (Glycine max), common (oilseed) sunflower (Helianthus annuus), and velvetleaf (Abutilon theophrasti) were planted and treated preemergence with test chemicals formulated in a non-phytotoxic solvent mixture which included a surfactant. At the same time, plants selected from these crop and weed species and also winter barley (Hordeum vulgare), canarygrass (Phalaris minor), and chickweed (Stellaria media) were treated with postemergence applications of some of the test chemicals formulated in the same manner. Plants ranged in height from 2 to 18 cm (1- to 4-leaf stage) for postemergence treatments. […] At time of treatment, test pots were flooded to 3 cm above the soil surface, treated by application of test compounds directly to the paddy water, and then maintained at that water depth for the duration of the test. […] A dash (-) response means no test result.

green foxtail = experiment: Test C pre-/postemergence test; type: in vivo, Setaria viridis; details: for Plant response rating, Foxtail, Green: scale 0 to 100, 0 no effect, 100 complete control
Procedure, shortened: as §2

redroot pigweed = experiment: Test A pre-/postemergence greenhouse test; type: in vivo, Amaranthus retroflexus; details: for Pigweed plant response rating: 0 to 100 scale
Procedure, shortened: as §1

common ragweed = experiment: Test C pre-/postemergence test; type: in vivo, Ambrosia elation; details: for Plant response rating, Ragweed: scale 0 to 100, 0 no effect, 100 complete control
Procedure, shortened: as §2

wild oat = experiment: Test C pre-/postemergence test; type: in vivo, Avena fatua; details: for Plant response rating, Oat, Wild: scale 0 to 100, 0 no effect, 100 complete control
Procedure, shortened: as §2

[2] = Postemergence, 125 g ai/ha, 0 is no effect, 100 is complete control
[3] = Postemergence, 500 g ai/ha, 0 is no effect, 100 is complete control
[4] = Preemergence, 125 g ai/ha, 0 no effect, 100 complete control
[5] = Preemergence, 500 g ai/ha, 0 to 100 scale where 0 is no effect and 100 is complete control
[6] = 31 g ai/ha, Preemergence, scale 0 to 100
[7] = 62 g ai/ha, preemergence, scale 0 (no effect) to 100 (complete control)
[8] = preemergence, 125 g ai/ha, scale 0 (no effect) to 100 (complete control)

CC(c1c(C(F)(F)F)nn(C)c1OC(F)F)S(=O)(=O)c1cccc[n+]1[O-] (stereo not shown) [Compound 5]
80: Nutsedge, Yellow plant response rating (yellow nutsedge; [6]) | Blackgrass plant response rating (blackgrass; [6]) | Ryegrass, Italian plant response rating (Italian ryegrass; [6]) | Crabgrass, Large plant response rating (crabgrass; [2]) | Crabgrass, Large plant response rating (crabgrass; [4]) | Pigweed plant response rating (redroot pigweed; [3])
100: Plant response rating, Morningglory (morningglory; [5]) | Plant response rating (0 to 100), Nutsedge, Yellow (yellow nutsedge; Preemergence, 250 g ai/ha) | Nutsedge, Yellow plant response rating (yellow nutsedge; [8]) | Plant response rating (0 to 100), Cupgrass, Woolly (woolly cupgrass; Preemergence, 250 g ai/ha) | Cupgrass, Woolly plant response rating (woolly cupgrass; [8]) | Blackgrass plant response rating (blackgrass; [7]) | Plant response rating (0 to 100), Blackgrass (blackgrass; Preemergence, 250 g ai/ha) | Blackgrass plant response rating (blackgrass; [8]) | Goosegrass plant response rating (Goosegrass; [6]) | Goosegrass plant response rating (Goosegrass; [7]) | Plant response rating (0 to 100), Goosegrass (Goosegrass; Preemergence, 250 g ai/ha) | Goosegrass plant response rating (Goosegrass; [8]) | Ryegrass, Italian plant response rating (Italian ryegrass; [7]) | Plant response rating (0 to 100), Ryegrass, Italian (Italian ryegrass; Preemergence, 250 g ai/ha) | Ryegrass, Italian plant response rating (Italian ryegrass; [8]) | Plant response rating, Crabgrass, Large (crabgrass; [5]) | Nightshade plant response rating (eastern black nightshade; [6]) | Nightshade plant response rating (eastern black nightshade; [7]) | Plant response rating (0 to 100), Nightshade (eastern black nightshade; Preemergence, 250 g ai/ha) | Nightshade plant response rating (eastern black nightshade; [8]) | Foxtail, Green plant response rating (green foxtail; [6]) | Foxtail, Green plant response rating (green foxtail; [7]) | Plant response rating (0 to 100), Foxtail, Green (green foxtail; Preemergence, 250 g ai/ha) | Foxtail, Green plant response rating (green foxtail; [8]) | Pigweed plant response rating (redroot pigweed; [4]) | Plant response rating, Pigweed (redroot pigweed; [5]) | Plant response rating (0 to 100), Ragweed (common ragweed; Preemergence, 250 g ai/ha) | Ragweed plant response rating (common ragweed; [8])
90: Morningglory plant response rating (morningglory; [3]) | Morningglory plant response rating (morningglory; [4]) | Cupgrass, Woolly plant response rating (woolly cupgrass; [7]) | Crabgrass, Large plant response rating (crabgrass; [3])
75: Plant response rating (0 to 100), Oat, Wild (wild oat; Preemergence, 250 g ai/ha)
0: Plant response rating (0 to 100), Nutsedge, Yellow (yellow nutsedge; Postemergence, 31 g ai/ha) | Plant response rating, Nutsedge, Yellow (yellow nutsedge; Postemergence, 62 g ai/ha) | Plant response rating, Nutsedge, Yellow (yellow nutsedge; Postemergence, 125 g ai/ha) | Plant response rating (0 to 100), Cupgrass, Woolly (woolly cupgrass; Postemergence, 31 g ai/ha) | Corn plant response rating (corn; [6]) | Plant response rating (0 to 100), Corn (corn; Postemergence, 31 g ai/ha) | Plant response rating, Corn (corn; Postemergence, 62 g ai/ha) | Plant response rating, Corn (corn; Postemergence, 125 g ai/ha) | Plant response rating, Corn (corn; Postemergence, 250 g ai/ha) | Plant response rating (0 to 100), Wheat (wheat; Postemergence, 31 g ai/ha) | Plant response rating (0 to 100), Wheat (wheat; Postemergence, 62 g ai/ha) | Plant response rating (0 to 100), Blackgrass (blackgrass; Postemergence, 31 g ai/ha) | Plant response rating, Blackgrass (blackgrass; Postemergence, 62 g ai/ha) | Plant response rating (0 to 100), Goosegrass (Goosegrass; Postemergence, 31 g ai/ha) | Plant response rating (0 to 100), Ryegrass, Italian (Italian ryegrass; Postemergence, 31 g ai/ha) | Plant response rating (0 to 100), Ryegrass, Italian (Italian ryegrass; Postemergence, 62 g ai/ha) | Plant response rating (0 to 100), Foxtail, Green (green foxtail; Postemergence, 31 g ai/ha) | Plant response rating, Foxtail, Green (green foxtail; Postemergence, 62 g ai/ha) | Plant response rating (0 to 100), Ragweed (common ragweed; Postemergence, 31 g ai/ha) | Plant response rating (0 to 100), Oat, Wild (wild oat; Postemergence, 31 g ai/ha) | Plant response rating, Oat, Wild (wild oat; Postemergence, 62 g ai/ha) | Plant response rating, Oat, Wild (wild oat; Postemergence, 125 g ai/ha)
95: Nutsedge, Yellow plant response rating (yellow nutsedge; [7]) | Plant response rating (0 to 100), Corn (corn; Preemergence, 250 g ai/ha)
70: Sunflower plant response rating ([1]; 125 g ai/ha) | Wheat plant response rating (wheat; 125 g ai/ha) | Plant response rating, Goosegrass (Goosegrass; Postemergence, 250 g ai/ha) | Oat, Wild plant response rating (wild oat; [8])
85: Cupgrass, Woolly plant response rating (woolly cupgrass; [6]) | Plant response rating (0 to 100), Sunflower ([1]; Preemergence, 250 g ai/ha) | Ragweed plant response rating (common ragweed; [6]) | Ragweed plant response rating (common ragweed; [7])
40: Plant response rating, Cupgrass, Woolly (woolly cupgrass; Postemergence, 62 g ai/ha) | Plant response rating, Cupgrass, Woolly (woolly cupgrass; Postemergence, 125 g ai/ha) | Corn plant response rating (corn; [7]) | Plant response rating, Blackgrass (blackgrass; Postemergence, 250 g ai/ha) | Plant response rating, Ryegrass, Italian (Italian ryegrass; Postemergence, 125 g ai/ha)
20: Wheat plant response rating (wheat; 62 g ai/ha) | Oat, Wild plant response rating (wild oat; [6])
10: Plant response rating, Nutsedge, Yellow (yellow nutsedge; Postemergence, 250 g ai/ha)
50: Plant response rating, Cupgrass, Woolly (woolly cupgrass; Postemergence, 250 g ai/ha) | Plant response rating, Ryegrass, Italian (Italian ryegrass; Postemergence, 250 g ai/ha)
5: Plant response rating (0 to 100), Ragweed (common ragweed; Postemergence, 62 g ai/ha) | Plant response rating, Ragweed (common ragweed; Postemergence, 125 g ai/ha)
55: Sunflower plant response rating ([1]; 62 g ai/ha) | Corn plant response rating (corn; [8]) | Plant response rating, Goosegrass (Goosegrass; Postemergence, 62 g ai/ha) | Plant response rating, Ragweed (common ragweed; Postemergence, 250 g ai/ha)
98: Plant response rating (0 to 100), Wheat (wheat; Preemergence, 250 g ai/ha)
60: Morningglory plant response rating (morningglory; [2]) | Plant response rating, Goosegrass (Goosegrass; Postemergence, 125 g ai/ha) | Plant response rating, Foxtail, Green (green foxtail; Postemergence, 125 g ai/ha) | Pigweed plant response rating (redroot pigweed; [2]) | Oat, Wild plant response rating (wild oat; [7])
65: Plant response rating, Foxtail, Green (green foxtail; Postemergence, 250 g ai/ha)
30: Plant response rating, Wheat (wheat; Postemergence, 125 g ai/ha) | Plant response rating, Wheat (wheat; Postemergence, 250 g ai/ha) | Plant response rating, Oat, Wild (wild oat; Postemergence, 250 g ai/ha)
